Laboratory results: patent publication US4803167A, “Monoclonal antidigoxtin antibodies” (The General Hospital Corporation, priority 1982, dated 1989)
Where “and” joins values, the source holds several entries; their conditions need not be identical. Equal values may be shown once. Read-outs that look alike come from different tables or passages of the source.

Legend:
[1] = tested on: monoclonal anti-digoxin antibody Dig 25-54 (IgG1); test: Affinity determination, [3H]digoxin dextran-coated charcoal RIA; assay type: binding, mouse (A/J); conditions: for Kd: 60 min, read-out: Affinity Constant K0 for digoxin (converted)
Description: (§1) Using the dextran coated charcoal binding method for separation of bound antibody from free H^3 -digoxin (Smith, J. Clin. Invest. 51:1583 (1972)), affinities (Ko) for monoclonal anti-digoxin antibodies were determined for antibody present in culture media and in preparations purified from ascites. Data were plotted according to a modified Sips equation (Nisonoff et al, J. Immunol. 80:417 (1958)), as described earlier herein. Typical of single component systems, a linear plot was obtained for all hybridomas analyzed. Correlation coefficients (r) varied from 0.989 to 0.999 for the monoclonal antibodies analyzed by this method. As anticipated, no significant difference was found for affinity constants determined for antibody present in culture media and in preparations following purification from ascites fluid (Table III).

[2] = target: monoclonal anti-digoxin antibody Dig 26-30 (IgG2a); test: as above; assay type: binding, mouse (A/J); conditions: 60 min, read-out: Affinity Constant K0 for digoxin (converted)
Description: as §1

[3] = target: monoclonal anti-digoxin antibody Dig 26-20 (IgG2a); test: as above; assay type: binding, mouse (A/J); conditions: 60 min, read-out: Affinity Constant K0 for digoxin (converted)
Description: as §1

[4] = target: monoclonal anti-digoxin antibody Dig 26-40 (IgG2a); test: as above; assay type: binding, mouse (A/J); conditions: 60 min, read-out: Affinity Constant K0 for digoxin (converted)
Description: as §1

[5] = target: monoclonal anti-digoxin antibody Dig 26-10 (IgG2a); test: as above; assay type: binding, mouse (A/J); conditions: for Kd: 60 min, read-out: Affinity Constant K0 for digoxin (converted)
Description: as §1

[6] = tested on: monoclonal anti-digoxin antibody Dig 35-20 (IgG1); test: as above; assay type: binding, mouse (A/J); conditions: for Kd: 60 min, read-out: Affinity Constant K0 for digoxin (converted)
Description: as §1

[7] = tested on: Sheep Anti-Dig Serum (heterogeneous anti-digoxin antiserum); test: Specificity determination, inhibition of [3H]digoxin binding in dextran charcoal RIA; conditions: inhibition of antibody binding to [3H]digoxin
Description: (§2) Antisera specific for digoxin was prepared in sheep as previously described by Curd et al, Proc. Nat. Acad. Sci. 65: 2401 (1971). High affinity antidigoxin sheep antisera was used in the clinical RIA for digoxin (described below).
(§3) The specificity of each antidigoxin antibody for related cardiac glycosides was assessed by the inhibition of binding of antibody in the dextran charcoal radioimmunoassay Smith (1972), supra. To a constant amount of H^3 -digoxin (1.5 ng) in 1 ml of buffer is added different amounts ([…]) of various cardiac glycosides: digoxin, digitoxin, digitoxigenin, digoxigenin, acetyl-strophanthidin, ouabain, deslanoside, and endogenous steroids such as chloresterol, cortisol, androsterone, 17-[beta]-estradiol, progesterone, and testosterone. After 5 minutes, a constant amount of anti-digoxin antibody was added and the assay was continued as described above. Comparison among different antidigoxin antibodies with respect to their fine specificity was made by determining the amount of cardiac glycoside required to achieve 50% inhibition relative to that required for cold digoxin.
(§4) Specificity of monoclonal antibody binding site for related cardiac glycosides was examined by means of hapten inhibition experiments in which the binding of monoclonal antibody to H^3 -digoxin was inhibited by cold digoxin and related cardiac glycosides.

[8] = target: Fab fragment of monoclonal anti-digoxin antibody Dig 26-10; test: Affinity determination, [3H]digoxin dextran-coated charcoal RIA; conditions: read-out: Affinity Constant K0 for digoxin, Fab of Dig 26-10, 60 min
[9] = tested on: heterogeneous anti-digoxin antibody, Pooled mouse antisera; test: as above; assay type: binding, mouse (A/J); conditions: antibody source: serum; 60 min; read-out: Affinity Constant K0 for digoxin (converted)
Description: (§5) A pool of mouse antidigoxin antibody was prepared from immune sera as follows. A/J mice immunized with Dig-HSA as described above, were bled from the tail on the 3rd or 4th week following intraperitoneal injection of antigen. Their sera were pooled and the antidigoxin antibodies were purified from the sera by affinity chromatography as described below. This antibody preparation was used as a standard antidigoxin reagent in the PVC-plate RIA (described below).

[10] = target: heterogeneous anti-digoxin antibody, Pooled mouse antibody; test: as above; assay type: binding, mouse (A/J); conditions: antibody source: serum; 60 min; read-out: Affinity Constant K0 for digoxin (converted)
Description: as §5

[11] = tested on: heterogeneous anti-digoxin antibody, Sheep Antisera; test: as above; assay type: binding; conditions: antibody source: serum; 60 min; read-out: Affinity Constant K0 for digoxin (converted)
Description: as §2

[12] = target: monoclonal anti-digoxin antibody Dig 26-10; test: Affinity constant by equilibrium dialysis; assay type: binding, mouse (A/J); conditions: confirmed by equilibrium dialysis
Description: The affinity constant determined for Dig 26-10 (approximately 10^9 M^-1) was confirmed by equilibrium dialysis. […] The Ko determined for Dig 35-20 was also high, 1.3-3.4×10^9 M^-1.

[13] = tested on: monoclonal anti-digoxin antibody Dig 26-40; test: Specificity determination, inhibition of [3H]digoxin binding in dextran charcoal RIA; design: species or system mouse (A/J); conditions: inhibition of antibody binding to [3H]digoxin
Description: as §3, §4

[14] = tested on: monoclonal anti-digoxin antibody Dig 35-20; test: as above; design: species or system mouse (A/J); conditions: inhibition of antibody binding to [3H]digoxin
Description: as §3, §4

[15] = tested on: monoclonal anti-digoxin antibody Dig 26-30; test: as above; design: species or system mouse (A/J); conditions: inhibition of antibody binding to [3H]digoxin
Description: as §3, §4

[16] = tested on: monoclonal anti-digoxin antibody Dig 26-20; test: as above; design: species or system mouse (A/J); conditions: inhibition of antibody binding to [3H]digoxin
Description: as §3, §4

[17] = tested on: monoclonal anti-digoxin antibody Dig 25-54; test: as above; design: species or system mouse (A/J); conditions: inhibition of antibody binding to [3H]digoxin
Description: as §3, §4

[18] = tested on: monoclonal anti-digoxin antibody Dig 26-10; test: as above; design: species or system mouse (A/J); conditions: inhibition of antibody binding to [3H]digoxin
Description: as §3, §4

**Q.** With `C[C@H]1O[C@@H](O[C@H]2[C@@H](O)C[C@H](O[C@H]3[C@@H](O)C[C@H](O[C@H]4CC[C@@]5(C)[C@H](CC[C@@H]6[C@@H]5C[C@@H](O)[C@]5(C)[C@@H](C7=CC(=O)OC7)CC[C@]65O)C4)O[C@@H]3C)O[C@@H]2C)C[C@H](O)[C@@H]1O` [Digoxin] as the compound, how does the Ko for digoxin [1] read?
**A.** The Ko for digoxin was 3.5 to 5.2 ×10^8 M^-1.

**Q.** What about the “apparent affinity Ko for digoxin” value [1] of the same compound?
**A.** Its value is < 10^8 M^-1.

**Q.** What about the Kd ([1]; antibody purified from ascites) of the same compound?
**A.** Its Kd is 1.92 nM.

**Q.** What about the Kd ([1]; antibody source: culture media) of the same compound?
**A.** Its Kd is 3.85 nM.

**Q.** And the Kd ([2]; antibody purified from ascites)?
**A.** The Kd was 0.172 nM.

**Q.** What about the Kd ([2]; antibody source: culture media) of the same compound?
**A.** The Kd was 0.256 nM.

**Q.** What about the Kd ([3]; antibody purified from ascites) of the same compound?
**A.** The Kd was 0.294 nM.

**Q.** And the Kd ([3]; antibody source: culture media)?
**A.** The Kd was 0.714 nM.

**Q.** What about the Kd ([4]; antibody purified from ascites) of the same compound?
**A.** Its Kd is 0.385 nM.

**Q.** What about the Kd ([4]; antibody source: culture media) of the same compound?
**A.** The Kd was 0.227 nM.

**Q.** What about the Kd ([5]; antibody purified from ascites) of the same compound?
**A.** The Kd was 0.213 nM.

**Q.** What about the Kd ([5]; antibody source: culture media) of the same compound?
**A.** Its Kd is 0.118 nM.

**Q.** What about the “Ko for digoxin, average value for the intact antibody” value ([5]; intact antibody) of the same compound?
**A.** The value was < 5×10^9.

**Q.** What about the Ko for digoxin [6] of the same compound?
**A.** The Ko for digoxin was 1.3-3.4×10^9 M^-1.

**Q.** And the Kd ([6]; antibody purified from ascites)?
**A.** The Kd was 0.769 nM.

**Q.** What about the Kd ([6]; antibody source: culture media) of the same compound?
**A.** Its Kd is 0.526 nM.

**Q.** And the “amount of inhibitor required to give 50% inhibition relative to the amount of digoxin which gave 50% inhibition” value [7]?
**A.** The value was 1.0.

**Q.** What about the Kd [8] of the same compound?
**A.** The Kd was 0.833 nM and 1 nM.

**Q.** And the Kd [9]?
**A.** The Kd was 0.323 nM.

**Q.** And the Kd [10]?
**A.** The Kd was 0.286 nM.

**Q.** What about the Kd [11] of the same compound?
**A.** The Kd was 0.0833 nM.

**Q.** And the Kd [12]?
**A.** The Kd was ~1 nM.

**Q.** What about the “amount of inhibitor required to give 50% inhibition relative to the amount of digoxin which gave 50% inhibition” value [13] of the same compound?
**A.** Its value is 1.0.

**Q.** And the “amount of inhibitor required to give 50% inhibition relative to the amount of digoxin which gave 50% inhibition” value [14]?
**A.** Its value is 1.0.

**Q.** And the “amount of inhibitor required to give 50% inhibition relative to the amount of digoxin which gave 50% inhibition” value [15]?
**A.** Its value is 1.0.

**Q.** And the “amount of inhibitor required to give 50% inhibition relative to the amount of digoxin which gave 50% inhibition” value [16]?
**A.** Its value is 1.0.

**Q.** What about the “amount of inhibitor required to give 50% inhibition relative to the amount of digoxin which gave 50% inhibition” value [17] of the same compound?
**A.** Its value is 1.0.

**Q.** What about the “amount of inhibitor required to give 50% inhibition relative to the amount of digoxin which gave 50% inhibition” value [18] of the same compound?
**A.** Its value is 1.0.
